{"source": "patent US5153219A", "about": "“Thiocarbamate sulfoxide composition for deterring ethanol ingestion” (Faiman; Morris D., priority 1991, dated 1992)", "key": {"[1]": {"system": "liver mitochondrial low Km ALDH", "conditions": "Hart et al., cited from earlier work; for dose at which 50% ALDH inhibition (ID50) occurred: intraperitoneal (IP) administration"}, "[2]": {"target": "T1, rat liver mitochondrial low Km ALDH (Rattus norvegicus, UniProt P11884)", "T1 construct": "Mitochondria were isolated from the liver of untreated rats; from tissue; host or cells: liver mitochondria of male Sprague-Dawley derived rats", "T1 sequence (P11884 20-519)": "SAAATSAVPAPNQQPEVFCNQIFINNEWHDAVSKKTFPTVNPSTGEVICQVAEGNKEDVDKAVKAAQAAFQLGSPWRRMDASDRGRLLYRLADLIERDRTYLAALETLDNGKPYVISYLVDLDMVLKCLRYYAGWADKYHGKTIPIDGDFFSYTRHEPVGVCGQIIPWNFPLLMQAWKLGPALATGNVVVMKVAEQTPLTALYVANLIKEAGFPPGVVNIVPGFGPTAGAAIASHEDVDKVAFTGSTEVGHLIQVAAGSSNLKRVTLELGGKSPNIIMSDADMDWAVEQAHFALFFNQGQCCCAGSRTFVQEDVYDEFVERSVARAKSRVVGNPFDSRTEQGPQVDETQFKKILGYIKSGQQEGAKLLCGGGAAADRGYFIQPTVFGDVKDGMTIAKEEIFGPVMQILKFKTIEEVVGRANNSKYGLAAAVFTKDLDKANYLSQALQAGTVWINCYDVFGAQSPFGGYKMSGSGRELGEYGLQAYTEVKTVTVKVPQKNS", "assay": "Liver aldehyde dehydrogenase determination in vivo after dosing rats", "conditions": "for in vivo ALDH inhibition relative to comparators (in words): versus DETC-Me, disulfiram or other disulfiram metabolites; for ED50: rat, 8 h, read-out: dose required to inhibit 50% of the low Km ALDH", "description": "1. Drug Doses. Doses of DETC-Me SO studied were 1.3 mg/kg, 2.6 mg/kg, 5.2 mg/kg, 10.3 mg/kg and 20.6 mg/kg.\n2. Animals. Male Sprague Dawley derived rats weighing 200-400 g were used. The rats were bred from a resident colony maintained in the Animals Care Unit at the University of Kansas. Rats were maintained on a 12-hour light-dark cycle with access to food and water ad lib until the night before an experiment, at which time food was removed. Animals were fasted for 12 hours prior to drug administration.\n3. Timing. In these in vivo studies, rats were fasted 12 hours before beginning the experiment. All experiments were carried out in the morning. Rats were treated with the doses of DETC-Me SO or DETC-Me described above, which were dissolved in polyethylene glycol 200. Eight hours later, the rats were anesthetized with carbon dioxide and then decapitated. The liver was quickly removed and the low Km aldehyde dehydrogenase determined. Each data point on FIG. 4 represents an average of four rats. Control rats were treated with […] only, and each control data point also represents an average of four rats.\n4. Aldehyde Dehydrogenase Determination. The liver from drug-treated and control rats was homogenized in 0.25M sucrose and differential centrifugation was carried out to isolate the mitochondrial fraction. The mitochondria were solubilized with sodium deoxycholate, and mitochondrial low Km and total (high and low) aldehyde dehydrogenase activity determined by the method of S.O.C. Tottmar et al., cited above."}, "[3]": {"target": "T1, rat liver mitochondrial low Km ALDH", "assay": "In vitro inhibition of rat liver mitochondrial low Km ALDH (isolated mitochondria incubation)", "assay_type": "biochemical", "description": "1. Drug Concentration. Concentrations of DETC-Me sulfoxide (\"DETC-Me SO\") studied were 0.2 μM, 2.0 μM, 20 μM and 200 μM. Concentrations of DDTC-Me SO studied were 0.5 μM, 2.5 μM, 10 μM, 25 μM, 50 μM and 100 μM.\n2. Animal Liver Preparation. Male Sprague-Dawley derived rats weighing 200-400 g were anesthetized with carbon dioxide and then decapitated. The livers from untreated rats were homogenized in 0.25M sucrose and differential centrifugation carried out to isolate the mitochondrial fraction. The mitochodria were solubilized with sodium deoxycholate, and mitochondrial low Km ALDH activity determined by the method of S.O.C. Tottmar et al., Biochem. J., 135, 577 (1973).\n3. In Vitro Incubation. Mitochondria were isolated from the liver of untreated rats as described in section (2) and resuspended in 0.1M phosphate buffer (pH=7.4). Incubations contained 2 mg of mitochondrial protein, to which was added DETC-Me SO or DDTC-Me SO in the concentrations described above. The DETC-Me SO or DDTC-Me SO was dissolved in ethanol and the incubations carried out for one hour. Control incubations contained ethanol alone.\n4. Aldehyde Dehydrogenase Analysis. At the end of the incubation, the mitochondria were isolated by centrifugation, resuspended in 0.25M sucrose buffer and solubilized with deoxycholate. Low Km ALDH activity was determined by the method of S.O.C. Tottmar et al., cited above."}, "[4]": {"assay": "Plasma acetaldehyde determination after ethanol challenge", "assay_type": "in vivo, rat", "conditions": "male rats", "description": "Rats maintained as described in Ex. 4, fasted for 18 hours, were given 10.3 mg/kg of the DETC-Me SO intraperitoneally, dissolved in polyethylene glycol 200 and then challenged eight hours later with a dose of ethanol (1 g/kg; 20% v/v) also administered intraperitoneally. The rats were anesthetized with phenobarbital 30 minutes after alcohol administration and blood was taken by aortic puncture, being drawn into a heparinized syringe. Plasma acetaldehyde was determined by the method of C.O.P. Eriksson et al., Anal. Biochem., 80, 116 (1977). Plasma concentrations were determined based on a standard curve obtained with known concentrations of acetaldehyde. Control rats were treated with 1 ml/kg of polyethylene glycol 200."}, "[5]": {"system": "liver mitochondrial low Km ALDH", "conditions": "Hart et al.; cited from earlier work"}}, "note": "Like-named read-outs stand apart in the source and are kept apart here.", "data": [{"smiles": "CCN(CC)C(=S)SC", "note": "[DDTC-Me, diethyldithiocarbamate-methyl ester]", "values": [{"measurement": "dose at which 50% ALDH inhibition (ID50) occurred", "setting": "[1]", "result": 15.5, "unit": "mg/kg"}]}, {"smiles": "CCN(CC)C(=O)[S+](C)[O-]", "note": "(stereo not drawn) [DETC-Me SO, S-Methyl-N,N-Diethylthiolcarbamate Sulfoxide]", "values": [{"measurement": "in vivo ALDH inhibition relative to comparators (in words)", "setting": "[2]", "result": "substantially more potent"}, {"measurement": "in vivo ALDH inhibition relative to comparators (in words)", "setting": "[2]; listed as DETC-Me sulfoxide", "result": "about twice as effective"}, {"measurement": "ED50", "setting": "[2]; male rats, intraperitoneal (IP), liver taken eight hours after dosing, FIG. 4", "result": 3.6, "unit": "mg/kg"}, {"measurement": "in vitro activity as inhibitor of low Km ALDH (in words)", "setting": "[3]", "result": "extremely potent inhibitor"}, {"measurement": "in vitro activity as inhibitor of low Km ALDH (in words)", "setting": "[3]; listed as DETC-Me sulfoxide", "result": "active in vitro"}, {"measurement": "plasma acetaldehyde", "setting": "[4]; 10.3 mg/kg IP in polyethylene glycol 200, then 1 g/kg ethanol (20% v/v) IP, FIG. 5", "result": "approximately 900 μM"}, {"measurement": "effect on plasma acetaldehyde after an ethanol challenge (in words)", "setting": "[4]; 10.3 mg/kg IP, 1 g/kg ethanol IP", "result": "markedly increase plasma acetaldehyde"}]}, {"smiles": "CCN(CC)C(=O)SC", "note": "[DETC-Me, S-Methyl-N,N-Diethylthiolcarbamate]", "values": [{"measurement": "in vitro inhibition of liver mitochondrial low Km ALDH (in words)", "setting": "[5]", "result": "not an effective in vitro inhibitor"}, {"measurement": "ED50", "setting": "[2]; ip", "result": 6.5, "unit": "mg/kg"}, {"measurement": "inhibition at 200 µM", "setting": "[3]; 1 h, read-out: inhibition of rat liver mitochondrial low Km ALDH", "result": 8, "unit": "%"}, {"measurement": "in vitro activity as inhibitor of low Km ALDH (in words)", "setting": "[3]", "result": "not"}, {"measurement": "potency as inhibitor of liver mitochondrial low Km ALDH relative to DDTC-Me, DDTC or disulfiram (in words)", "setting": "[1]", "result": "more potent inhibitor"}, {"measurement": "dose at which 50% ALDH inhibition (ID50) occurred", "setting": "[1]", "result": 6.5, "unit": "mg/kg"}]}, {"smiles": "CCN(CC)C(=S)SSC(=S)N(CC)CC", "note": "[disulfiram, tetraethylthiuram disulfide]", "values": [{"measurement": "dose at which 50% ALDH inhibition (ID50) occurred", "setting": "[1]", "result": 56.2, "unit": "mg/kg"}]}]}
